Tests used:
[1] = test system: Carmine spider mite (Tetranychus cinnabarinus); experiment: Acaricidal activity, Airbrush spraying tower, mortality
Procedure: (§1) Technical samples were dissolved in acetone/methanol (1:1) and diluted to required concentration with water containing 0.1% of tween 80.
(§2) Armyworm (Leucania separata), diamondback moth (Plutella xylostella) culex mosquitoes (Culex pippens pallens), Myzus persicae (Myzus persicae and Carmine spider mite (Tetranychus cinnabarinus) were treated with Airbrush spraying tower, and culex mosquito was treated with dipping culture method. The pressure of Airbrush spraying tower was 10 psi (about 0.7 kg/cm2) and the amount of spraying was 0.5 ml. Mortality investigation of test insects was carried out 2 to 3 days after the treatment.

[2] = test system: wheat powdery mildew (Blumeria graminis); experiment: Therapy activity against wheat powdery mildew on potted plants; assay type: in vivo
Myzus persicae = experiment: Insecticidal activity, Airbrush spraying tower, mortality; details: 600 mg/L
Procedure: as §1, §2

[3] = test system: wheat powdery mildew (Blumeria graminis); experiment: Fungicidal protective activity against wheat powdery mildew on potted plants; assay type: in vivo
[4] = test system: cucumber downy mildew (Pseudoperonospora cubenis); experiment: Fungicidal protective activity against cucumber downy mildew on potted plants; assay type: in vivo; details: 400 mg/L
[5] = 0.19 mg/L, wheat powdery mildew
[6] = 0.39 mg/L, wheat powdery mildew
[7] = 0.78 mg/L, wheat powdery mildew
[8] = 1.56 mg/L, wheat powdery mildew
[9] = 3.13 mg/L, wheat powdery mildew
[10] = 6.25 mg/L, wheat powdery mildew
[11] = 12.5 mg/L, wheat powdery mildew

Structure (SMILES) | Protective activity % one day [3, 5] [%] | Protective activity % one day [3, 6] [%] | Protective activity % one day [3, 7] [%] | Protective activity % one day [3, 8] [%] | Protective activity % one day [3, 9] [%] | Protective activity % one day [3, 10] [%] | control against wheat powdery mildew ([3]; 12.5 mg/L) [%] | Protective activity % one day [3, 11] [%] | Protective activity % one day ([3]; 25 mg/L, wheat powdery mildew) [%] | control against wheat powdery mildew ([3]; 200 mg/L) | control against wheat powdery mildew ([3]; 400 mg/L) [%] | control against cucumber downy mildew [4] [%] | other results
CC(C)(C)c1ccc(CSc2cnn(C(C)(C)C)c(=O)c2Cl)cc1 [Pyridaben, reference compound] |  |  |  |  |  |  |  |  |  |  |  |  | control of Carmine spider mite ([1]; 10 mg/L): 95%
COC=C(C(=O)OC)c1ccccc1COc1ccc(C(F)(F)F)cc1Cl [compound 1] | 30 | 55 | 90 | 100 | 100 | 100 | 100 | 100 | 100 | 100% | 100 | 100 | Therapy activity % 3 days ([2]; 1.56 mg/L): 50%; Therapy activity % 3 days ([2]; 3.125 mg/L): 80%; Therapy activity % 3 days ([2]; 6.25 mg/L): 100%; Therapy activity % 3 days ([2]; 12.5 mg/L): 100%; control of Myzus persicae (Myzus persicae): 100%; control of Carmine spider mite ([1]; 10 mg/L): 95%; control of Carmine spider mite ([1]; 50 mg/L): 100%; control of Carmine spider mite ([1]; 150 mg/L): 100%; control of Carmine spider mite ([1]; 600 mg/L): 100%
CON=C(C(=O)OC)c1ccccc1COc1ccc(C(F)(F)F)cc1Cl [compound 4] | 70 | 90 | 98 | 100 | 100 | 100 | 100 | 100 | 100 | 100% | 100 | 100 | control of Carmine spider mite ([1]; 600 mg/L): 100%
CNC(=O)C(=NOC)c1ccccc1COc1ccc(C(F)(F)F)cc1Cl [compound 7] | 50 | 85 | 90 | 100 | 100 | 100 | 100 | 100 | 100 | 100% | 100 | 100 | 
COC(=O)N(OC)c1ccccc1COc1ccc(C(F)(F)F)cc1Cl [compound 10] |  |  |  |  |  |  |  |  |  | more than 95% | 100 |  | 
COC=C(C(=O)OC)c1ccccc1Oc1cc(Oc2ccc(C(F)(F)F)cc2Cl)ncn1 [compound 16] |  |  |  |  |  |  |  |  |  |  | 100 |  | 
CO/N=C(/C(=O)OC)c1ccccc1COc1ccccc1C [kresoxin-methyl, reference compound] |  |  |  |  |  |  |  |  |  |  |  |  | inhibition at 1.56 µg/mL ([2]; Blumeria graminis, 72 h, 1.56 mg/L, read-out: Therapy activity % 3 days): 10%; inhibition at 3.125 µg/mL ([2]; Blumeria graminis, 72 h, 3.125 mg/L, read-out: Therapy activity % 3 days): 15%; inhibition at 6.25 µg/mL ([2]; Blumeria graminis, 72 h, 6.25 mg/L, read-out: Therapy activity % 3 days): 20%; inhibition at 12.5 µg/mL ([2]; Blumeria graminis, 72 h, 12.5 mg/L, read-out: Therapy activity % 3 days): 100%; inhibition at 0.19 µg/mL ([3]; Blumeria graminis, 24 h, 0.19 mg/L, wheat powdery mildew, read-out: Protective activity % one day): 0%; inhibition at 0.39 µg/mL ([3]; Blumeria graminis, 24 h, 0.39 mg/L, wheat powdery mildew, read-out: Protective activity % one day): 0%; inhibition at 0.78 µg/mL ([3]; Blumeria graminis, 24 h, 0.78 mg/L, wheat powdery mildew, read-out: Protective activity % one day): 15%; inhibition at 1.56 µg/mL ([3]; Blumeria graminis, 24 h, 1.56 mg/L, wheat powdery mildew, read-out: Protective activity % one day): 40%; inhibition at 3.13 µg/mL ([3]; Blumeria graminis, 24 h, 3.13 mg/L, wheat powdery mildew, read-out: Protective activity % one day): 70%; inhibition at 6.25 µg/mL ([3]; Blumeria graminis, 24 h, 6.25 mg/L, wheat powdery mildew, read-out: Protective activity % one day): 98%; inhibition at 12.5 µg/mL ([3]; Blumeria graminis, 24 h, 12.5 mg/L, wheat powdery mildew, read-out: Protective activity % one day): 100%; inhibition at 25 µg/mL ([3]; Blumeria graminis, 24 h, 25 mg/L, wheat powdery mildew, read-out: Protective activity % one day): 100%

— US7947734B2, “Substituted para-trifluoromethyl phenylate compounds and its preparation and use thereof” (Sinochem Corporation, priority 2005, dated 2011)
